These results are taken from patent US20250034136A1 (Nimbus Wadjet, Inc., priority 2023, published 2025).

In assay [1] the target is WRN (BV08), human Werner helicase (Uniprot Q14191, amino acids 517-1235 with L1074F point mutation) (Homo sapiens (Human), UniProt Q14191, L1074F). Briefly: WRN (BV08) ADP-Glo assay. The class given is biochemical. As to conditions: class symbols A-E, read-out: ADP-Glo_hWRN_IC50. In general terms: ADP-Glo turns the ADP formed in a reaction into a luminescent signal.
The subject of assay [2] is p21 induction in HCT116 cells. Briefly: p21 induction in HCT116 cells. Format: cell-based. As to conditions: Homo sapiens, HCT-116, 24 h, HCT116 cells, 24 h compound incubation; read-out: P21_EC50. The method, boiled down:
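EC50 from non-linear curve fit of p21 immunofluorescence (800 nm), with GAPDH (700 nm) read alongside. DMSO and a reference WRN inhibitor served as low and high controls. Cells (2,000/well) got 11 compound concentrations in duplicate for 24 h at 37 °C.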

WRN (BV08), human Werner helicase (Uniprot Q14191, amino acids 517-1235 with L1074F point mutation), sequence (Q14191 other isoform, or with tags, fused parts or gaps L1074F (already in the parent)): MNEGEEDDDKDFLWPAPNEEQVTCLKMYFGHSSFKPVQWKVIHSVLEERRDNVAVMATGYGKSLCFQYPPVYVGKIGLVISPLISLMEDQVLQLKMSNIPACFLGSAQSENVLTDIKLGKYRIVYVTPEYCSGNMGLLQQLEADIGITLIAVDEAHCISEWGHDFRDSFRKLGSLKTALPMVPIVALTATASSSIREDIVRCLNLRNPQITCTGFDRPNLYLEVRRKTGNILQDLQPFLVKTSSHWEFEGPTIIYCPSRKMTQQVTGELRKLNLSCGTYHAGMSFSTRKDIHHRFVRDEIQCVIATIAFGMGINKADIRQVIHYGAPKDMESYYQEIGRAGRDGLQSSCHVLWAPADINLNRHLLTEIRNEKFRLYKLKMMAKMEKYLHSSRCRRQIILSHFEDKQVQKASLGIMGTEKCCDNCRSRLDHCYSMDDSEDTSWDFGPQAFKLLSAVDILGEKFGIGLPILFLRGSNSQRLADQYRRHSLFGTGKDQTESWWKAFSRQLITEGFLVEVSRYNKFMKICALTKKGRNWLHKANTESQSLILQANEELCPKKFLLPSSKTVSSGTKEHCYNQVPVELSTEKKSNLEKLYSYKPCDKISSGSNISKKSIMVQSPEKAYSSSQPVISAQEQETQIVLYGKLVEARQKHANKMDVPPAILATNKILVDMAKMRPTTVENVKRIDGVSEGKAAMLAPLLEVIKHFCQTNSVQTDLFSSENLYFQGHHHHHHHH

Turning to `CCc1c(N2CCN(C(=O)c3ncnc(C)c3O)[C@H]3CC[C@@H]32)c(=O)c2nc(N3CC(OC)C3)cnc2n1CC(=O)Nc1ccc(C(F)(F)F)cc1Cl` [I-242, N-[2-chloro-4-(trifluoromethyl)phenyl]-2-{6-ethyl-7-[(1S,6S)-5-(5-hydroxy-6-methylpyrimidine-4-carbonyl)-2,5-diazabicyclo[4.2.0]octan-2-yl]-2-(3-methoxyazetidin-1-yl)-8-oxo-5H,8H-pyrido[2,3-b]pyrazin-5-yl}acetamide], in assay [1], the IC50 was in the range of 0.005 to 0.05 µM. Besides, the EC50 in assay [2] is < 0.5 µM.

Consider `CCc1c(N2CCN(C(=O)c3ncnc(C)c3O)CC2)c(=O)c2nc(/C=C3\CCC3C)cnc2n1CC(=O)Nc1ccc(C(F)(F)F)cc1Cl` (stereo not shown) [I-142, N-[2-chloro-4-(trifluoromethyl)phenyl]-2-{6-ethyl-7-[4-(5-hydroxy-6-methylpyrimidine-4-carbonyl)piperazin-1-yl]-2-[(2-methylcyclobutylidene)methyl]-8-oxo-5H,8H-pyrido[2,3-b]pyrazin-5-yl}acetamide], for which, in assay [1], the IC50 was ≤ 0.005 µM. For the same molecule, the EC50 in assay [2] is 0.5 to 2 µM.

Take `CCc1c(N2CCN(C(=O)c3ncnc(C)c3O)[C@H]3CC[C@@H]32)c(=O)c2nc(N(C)C)cnc2n1CC(=O)Nc1ccc(C(F)(F)F)cc1C` [I-103, 2-(2-(dimethylamino)-6-ethyl-7-((1S,6S)-5-(5-hydroxy-6-methylpyrimidine-4-carbonyl)-2,5-diazabicyclo[4.2.0]octan-2-yl)-8-oxopyrido[2,3-b]pyrazin-5(8H)-yl)-N-(2-methyl-4-(trifluoromethyl)phenyl)acetamide]: in assay [1], the IC50 was in the range of 0.005 to 0.05 µM. The EC50 in assay [2] is < 0.5 µM.

Turning to `CCc1c(N2CCN(C(=O)c3ncnc(C)c3O)C[C@@H]2C)c(=O)c2nc(N3CC[C@H]3COC)cnc2n1CC(=O)Nc1ccc(C(F)(F)F)cc1Cl` [I-188, N-[2-chloro-4-(trifluoromethyl)phenyl]-2-{6-ethyl-7-[(2S)-4-(5-hydroxy-6-methylpyrimidine-4-carbonyl)-2-methylpiperazin-1-yl]-2-[(2S)-2-(methoxymethyl)azetidin-1-yl]-8-oxo-5H,8H-pyrido[2,3-b]pyrazin-5-yl}acetamide], in assay [1], the IC50 lay in the range of 0.005 to 0.05 µM. Moreover, the EC50 in assay [2] was in the range of 0.5 to 2 µM.

Regarding `CCc1c(N2CCN(C(=O)c3ncnc(C)c3O)CC2)c(=O)c2nc(N3CC(OC)C3)cnc2n1CC(=O)Nc1ccc(C(F)(F)F)cc1Cl` [I-66, N-(2-chloro-4-(trifluoromethyl)phenyl)-2-(6-ethyl-7-(4-(5-hydroxy-6-methylpyrimidine-4-carbonyl)piperazin-1-yl)-2-(3-methoxyazetidin-1-yl)-8-oxopyrido[2,3-b]pyrazin-5(8H)-yl)acetamide], the IC50 in assay [1] lay within 0.005 to 0.05 µM. Besides, in assay [2], the EC50 lay within 2 to 5 µM.

As for `CCc1c(N2CCN(C(=O)c3ncnc(C)c3O)CC2)c(=O)c2nc(C#N)cnc2n1CC(=O)Nc1ccc(C(F)(F)F)cc1Cl` [I-83, N-(2-chloro-4-(trifluoromethyl)phenyl)-2-(2-cyano-6-ethyl-7-(4-(5-hydroxy-6-methylpyrimidine-4-carbonyl)piperazin-1-yl)-8-oxopyrido[2,3-b]pyrazin-5(8H)-yl)acetamide], the IC50 in assay [1] was 0.005 to 0.05 µM. In addition, in assay [2], the EC50 is > 5 µM.

Turning to `CCc1c(N2CCN(C(=O)c3ncnc(C)c3O)CC2)c(=O)c2nc(N(C)C(C)=O)cnc2n1CC(=O)Nc1ccc(C(F)(F)F)cc1Cl` [I-30, N-(2-chloro-4-(trifluoromethyl)phenyl)-2-(6-ethyl-7-(4-(5-hydroxy-6-methylpyrimidine-4-carbonyl)piperazin-1-yl)-2-(N-methylacetamido)-8-oxopyrido[2,3-b]pyrazin-5(8H)-yl)acetamide], the IC50 in assay [1] lay in the range of 0.05 to 0.1 µM. The EC50 in assay [2] is > 5 µM.

Regarding `CCc1c(N2CCN(C(=O)c3ncnc(C)c3O)CC2)c(=O)c2nc3cc(C)oc3nc2n1CC(=O)Nc1ccc(C(F)(F)F)cc1Cl` [I-112, N-(2-chloro-4-(trifluoromethyl)phenyl)-2-(7-ethyl-6-(4-(5-hydroxy-6-methylpyrimidine-4-carbonyl)piperazin-1-yl)-2-methyl-5-oxofuro[2,3-b]pyrido[3,2-e]pyrazin-8(5H)-yl)acetamide], in assay [1], the IC50 was in the range of 0.005 to 0.05 µM. Besides, in assay [2], the EC50 is < 0.5 µM.

With `CCc1c(N2CCN(C(=O)c3ncnc(C)c3O)CC2)c(=O)c2nc(N3CCCC3C(C)(C)O)cnc2n1CC(=O)Nc1ccc(C(F)(F)F)cc1Cl` (stereo not shown) [I-152, N-[2-chloro-4-(trifluoromethyl)phenyl]-2-{6-ethyl-7-[4-(5-hydroxy-6-methylpyrimidine-4-carbonyl)piperazin-1-yl]-2-[2-(2-hydroxypropan-2-yl)pyrrolidin-1-yl]-8-oxo-5H,8H-pyrido[2,3-b]pyrazin-5-yl}acetamide], the IC50 in assay [1] lay in the range of 0.005 to 0.05 µM. The EC50 in assay [2] is > 5 µM.

As to `CC#Cc1cnc2c(n1)c(=O)c(N1CCN(C(=O)c3ncnc(C)c3O)CC1)c(CC)n2CC(=O)Nc1ccc(C(F)(F)F)cc1Cl` [I-11, N-(2-chloro-4-(trifluoromethyl)phenyl)-2-(6-ethyl-7-(4-(5-hydroxy-6-methylpyrimidine-4-carbonyl)piperazin-1-yl)-8-oxo-2-(prop-1-yn-1-yl)pyrido[2,3-b]pyrazin-5(8H)-yl)acetamide], the IC50 in assay [1] lay in the range of 0.005 to 0.05 µM. In addition, the EC50 in assay [2] fell in the range of 2 to 5 µM.

For `CCc1c(N2CCN(C(=O)c3ncnc(C)c3O)CC2)c(=O)c2nc(C(C)(C)O)cnc2n1CC(=O)Nc1ccc(C(F)(F)F)cc1Cl` [I-84, N-(2-chloro-4-(trifluoromethyl)phenyl)-2-(6-ethyl-7-(4-(5-hydroxy-6-methylpyrimidine-4-carbonyl)piperazin-1-yl)-2-(2-hydroxypropan-2-yl)-8-oxopyrido[2,3-b]pyrazin-5(8H)-yl)acetamide], the IC50 in assay [1] was in the range of 0.05 to 0.1 µM. In assay [2], the EC50 is > 5 µM.

Turning to `CCc1c(N2CCN(C(=O)c3ncnc(C)c3O)C[C@@H]2C)c(=O)c2nc(N3CC[C@H]4C[C@H]43)cnc2n1CC(=O)Nc1ccc(C(F)(F)F)cc1Cl` (single isomer, unassigned) [I-192], the IC50 in assay [1] was ≤ 0.005 µM. Besides, in assay [2], the EC50 was < 0.5 µM.

Turning to `CCc1c(N2CCN(C(=O)c3ncnc(C)c3O)CC2)c(=O)c2nc(C=C3CCC3)cnc2n1CC(=O)Nc1ccc(C(F)(F)F)cc1Cl` [I-38, N-(2-chloro-4-(trifluoromethyl)phenyl)-2-(2-(cyclobutylidenemethyl)-6-ethyl-7-(4-(5-hydroxy-6-methylpyrimidine-4-carbonyl)piperazin-1-yl)-8-oxopyrido[2,3-b]pyrazin-5(8H)-yl)acetamide], the IC50 in assay [1] is ≤ 0.005 µM. Further, in assay [2], the EC50 is < 0.5 µM.

Regarding `CCc1c(N2CCN(C(=O)c3ncnc(C)c3O)CC2)c(=O)c2nc(N3CC4(CC4)C3)cnc2n1CC(=O)Nc1ccc(C(F)(F)F)cc1Cl` [I-162, 2-(2-{5-azaspiro[2.3]hexan-5-yl}-6-ethyl-7-[4-(5-hydroxy-6-methylpyrimidine-4-carbonyl)piperazin-1-yl]-8-oxo-5H,8H-pyrido[2,3-b]pyrazin-5-yl)-N-[2-chloro-4-(trifluoromethyl)phenyl]acetamide], the IC50 in assay [1] was in the range of 0.005 to 0.05 µM. Further, the EC50 in assay [2] lay in the range of 0.5 to 2 µM.
